Measured values taken from patent US11780826B2 (Amgen Inc., priority 2017, dated 2023).

Experiments:
Male CD rats [1] = assay: Echocardiography/ultrasound protocol: fractional shortening (% FS) during intravenous infusion, MEE; assay type: in vivo; design: unit not given here; details: rat, formulation 40% HPbCD, corrected for rat plasma protein binding
Protocol: (§1) Formulations: A compound as disclosed herein and water were admixed together. Either 30% wt/vol or 40% wt/vol of hydroxypropyl beta-cyclodextrin (HPBCD) was added and the mixture stirred until dissolved.
(§2) Echocardiography/ultrasound protocol: Serial echocardiography was conducted with the aid of an imaging system suitable for rodent cardiac ultrasound. Male CD rats (6-10 weeks of age; 6-12 animals per group) were cannulated with a jugular vein catheter to enable delivery of test article by intravenous infusion. […] An imaging probe was fixed in position to acquire short axis (SAX), motion (M)—mode images of the left cardiac ventricle at the level of the papillary muscles. Baseline data was acquired prior to initiating test article delivery. Test article (compound as disclosed herein in a HPBCD formulation), or vehicle control, was delivered with the aid of an infusion pump connected to the jugular vein catheter. Infusion rate of test article was increased at 15 min intervals, to a maximum of 5 mL/kg/hr. Ultrasound images were acquired at 5 min intervals. Additionally whole blood (not exceeding 10 uL) was collected via a tail nick at the same 5 min intervals for subsequent exposure determination.
(§3) Whole blood samples were analyzed by protein precipitation and liquid chromatography tandem mass spectrometry (LC-MS/MS) using multiple reaction monitoring (MRM) in positive ionization mode. The lower limit of quantitation (LLOQ) in the assay was 1 ng/mL and the upper limit of quantitation (ULOQ) was 10,000 ng/mL.
Offline data analysis of the SAX M-mode ultrasound images was conducted to derive measures of left ventricular end diastolic diameter (LVEDD), left ventricular end systolic diameter (LVESD) and subsequent calculation of fractional shortening (% FS) using the following formula: % FS=((LVEDD−LVESD)/LVEDD)*100. Minimally efficacious exposure (MEE) was defined as the exposure at which a 10% increase in % FS from baseline was observed. The MEE was derived by plotting assayed exposures against % FS and using non-linear curve fitting (log(exposure) vs. % FS; variable slope, 4 parameters). Response to vehicle at each time point was averaged and all test article responses were normalized to baseline and subtracted from time matched (averaged) vehicle responses.

[2] = system: Bovine cardiac myofibrils; assay: In vitro model of dose-dependent myofibril ATPase modulation (AC1.4, pyruvate kinase/lactate dehydrogenase-coupled ATPase assay at pCa25); assay type: biochemical; details: concentration at which ATPase activity was 1.4-fold higher than the bottom of the dose curve, mean of a minimum of two independent tests
How it was run: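 Compound dilutions were premixed with myofibrils, coupling enzymes, EGTA and CaCl2, then the reaction was started with an equal volume carrying ATP (final 1 mM), NADH and PEP. ATP turnover was followed at 340 nm, and dose responses were fit to a four-parameter equation.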

Male CD rats [3] = assay: Pressure-volume loop (PV Loop) protocol (invasive hemodynamics): ejection fraction (% EF) during intravenous infusion, MEE; assay type: in vivo; design: unit not given here; details: exposure at 10% increase in % EF from baseline, rat, corrected for rat plasma protein binding
Protocol: as §1, §2, §3
Pressure-volume loop (PV Loop) protocol (invasive hemodynamics): Left ventricular catheterization with a pressure-volume transducing catheter was applied as an alternative method to derive pharmacodynamic endpoints. A pressure volume conductance catheter was inserted via the left carotid artery and advanced into the left ventricle. The electrical signal emitted from the volume catheter was used to derive measures of relative volume at 5 min intervals. From these measures, left ventricular end diastolic volume (LVEDV) and left ventricular end systolic volume (LVESV) were derived. Ejection fraction was then derived using the following formula: % EF=((LVEDV−LVESV)/LVEDV)*100. Minimally efficacious exposure (MEE) was defined as the exposure at which a 10% increase in % EF from baseline was observed. The MEE was derived by plotting assayed exposures against % EF and using non-linear curve fitting (log(exposure) vs. % EF; variable slope, 4 parameters). Response to vehicle at each time point was averaged and all test article responses were normalized to baseline and subtracted from time matched (averaged) vehicle responses. Animal preparation, vehicle/test article delivery and blood sampling for exposure determination was as described in Echocardiography/ultrasound protocol.

[4] = Echocardiography, exposure at 10% increase in % FS from baseline

| AC1.4 [2] [µM] | SMILES | MEE* (unbound), minimally efficacious exposure (Male CD rats [3]; formulation 40% HPbCD) | further results |
| --- | --- | --- | --- |
| 0.1384 | N#CC1CN(S(=O)(=O)N2CCC[C@H](C(=O)N3CCC[C@@H]3C(=O)NCc3ccc(Cl)c(Cl)c3)C2)C1 [Example 91, 1-(((3S)-1-((3-cyano-1-azetidinyl)sulfonyl)-3-piperidinyl)carbonyl)-N-(3,4-dichlorobenzyl)-D-prolinamide] | 0.04 |  |
| 0.7943 | C[C@@H](NC(=O)[C@H]1CCCN1C(=O)[C@H]1CCCN(S(=O)(=O)N2CC(C#N)C2)C1)c1ccc(F)c(F)c1 [Example 301, 1-(((3S)-1-((3-cyano-1-azetidinyl)sulfonyl)-3-piperidinyl)carbonyl)-N-((1R)-1-(3,4-difluorophenyl)ethyl)-D-prolinamide] | 0.19 |  |
| 0.07786 | N#CC1CN(S(=O)(=O)N2CCC[C@H](C(=O)N3CCC[C@@H]3C(=O)NCc3ccc(C(F)(F)F)cc3)C2)C1 [Example 67, 1-(((3S)-1-((3-cyano-1-azetidinyl)sulfonyl)-3-piperidinyl)carbonyl)-N-(4-(trifluoromethyl)benzyl)-D-prolinamide] |  | MEE* (unbound), minimally efficacious exposure (Male CD rats [3]; formulation 40% HPbCD pH 4 NaOH): 1.05 |
| 0.8883 | C[C@@H](NC(=O)[C@H]1CCCN1C(=O)[C@H]1CCCN(S(=O)(=O)N2CC(C#N)C2)C1)c1ccc(F)cc1F [Example 325, 1-(((3S)-1-((3-cyano-1-azetidinyl)sulfonyl)-3-piperidinyl)carbonyl)-N-((1R)-1-(2,4-difluorophenyl)ethyl)-D-prolinamide] | 0.41 |  |
| 0.6461 | N#CC1CN(S(=O)(=O)N2CCC[C@H](C(=O)N3CCC[C@@H]3C(=O)NCc3ccc(C(F)F)cc3)C2)C1 [Example 261, 1-(((3S)-1-((3-cyano-1-azetidinyl)sulfonyl)-3-piperidinyl)carbonyl)-N-(4-(difluoromethyl)benzyl)-D-prolinamide] | 0.16 |  |
| 0.7212 | N#CC1CN(S(=O)(=O)N2CCC[C@H](C(=O)N3CCC[C@@H]3C(=O)NCc3cc(F)cc(F)c3)C2)C1 [Example 287, 1-(((3S)-1-((3-cyano-1-azetidinyl)sulfonyl)-3-piperidinyl)carbonyl)-N-(3,5-difluorobenzyl)-D-prolinamide] | 0.47 |  |
| 1.712 | N#CC1CN(S(=O)(=O)N2CCC[C@H](C(=O)N3CCC[C@@H]3C(=O)NCc3cccc(Cl)c3)C2)C1 [Example 438, N-(3-chlorobenzyl)-1-(((3S)-1-((3-cyano-1-azetidinyl)sulfonyl)-3-piperidinyl)carbonyl)-D-prolinamide] |  |  |

Continued, molecule first:

| SMILES | AC1.4 [2] [µM] | MEE* (unbound), minimally efficacious exposure (Male CD rats [3]; formulation 40% HPbCD) | further results |
| --- | --- | --- | --- |
| CS(=O)(=O)c1cncc(C(=O)N2[C@@H](C(=O)N[C@@H](c3cc(F)c(C(F)(F)F)cc3F)C3CC3)C[C@H]3C[C@H]32)c1 [Example 214, (1R,3R,5R)—N—((R)-cyclopropyl(2,5-difluoro-4-(trifluoromethyl)phenyl)methyl)-2-(5-(methylsulfonyl)nicotinoyl)-2-azabicyclo[3.1.0]hexane-3-carboxamide] | 0.4665 |  | MEE* (unbound), minimally efficacious exposure (Male CD rats [1]; [4]): 0.12 |
| CS(=O)(=O)c1cccc(C(=O)N2CCCC[C@@H]2C(=O)N[C@@H](c2cc(F)c(Cl)cc2F)C2CC2)c1 [Example 113, (2R)-N-((R)-(4-chloro-2,5-difluorophenyl)(cyclopropyl)methyl)-1-(3-(methylsulfonyl)benzoyl)-2-piperidinecarboxamide] | 0.1763 | 0.04 |  |
| CS(=O)(=O)c1cc(C(=O)N2[C@@H](C(=O)N[C@@H](c3cc(F)c(C(F)(F)F)cc3F)C3CC3)C[C@H]3C[C@H]32)ccn1 [Example 279, (1R,3R,5R)—N—((R)-cyclopropyl(2,5-difluoro-4-(trifluoromethyl)phenyl)methyl)-2-(2-(methylsulfonyl)isonicotinoyl)-2-azabicyclo[3.1.0]hexane-3-carboxamide] | 0.7092 |  | MEE* (unbound), minimally efficacious exposure (Male CD rats [1]; [4]): 0.68 |
| CS(=O)(=O)c1cccc(C(=O)N2C[C@@H](F)C[C@@H]2C(=O)N[C@@H](c2ccc(C(F)(F)F)cc2F)C2CC2)c1 [Example 402, (2R,4S)—N—((R)-cyclopropyl(2-fluoro-4-(trifluoromethyl)phenyl)methyl)-4-fluoro-1-(3-(methylsulfonyl)benzoyl)pyrrolidine-2-carboxamide] | 1.381 | 0.18 |  |
| N#CC1CN(S(=O)(=O)N2CCN[C@H](C(=O)N3CCC[C@@H]3C(=O)NCc3ccc(C(F)(F)F)cc3F)C2)C1 [Example 200, 1-(((2S)-4-((3-cyano-1-azetidinyl)sulfonyl)-2-piperazinyl)carbonyl)-N-(2-fluoro-4-(trifluoromethyl)benzyl)-D-prolinamide] | 0.4083 | 1.02 |  |
| C[C@@H](NC(=O)[C@H]1CCCN1C(=O)[C@H]1CCCN(S(=O)(=O)N2CC(C#N)C2)C1)c1ccc(Cl)cc1 [Example 135, N-((1R)-1-(4-chlorophenyl)ethyl)-1-(((3S)-1-((3-cyano-1-azetidinyl)sulfonyl)-3-piperidinyl)carbonyl)-D-prolinamide] | 0.2215 | 0.05 |  |
| CS(=O)(=O)c1cccc(C(=O)N2CCC[C@@H]2C(=O)N[C@@H](c2ccc(C(F)(F)F)cc2F)C2CC2)c1 [Example 364, (R)—N—((R)-cyclopropyl(2-fluoro-4-(trifluoromethyl)phenyl)methyl)-1-(3-(methylsulfonyl)benzoyl)pyrrolidine-2-carboxamide] | 1.04 |  | MEE* (unbound), minimally efficacious exposure (Male CD rats [1]; Echocardiography and PV Loop (both protocols named for this value)): 0.27 |
| O=C(O[C@@H]1C[C@H](C(=O)N[C@@H](c2cc(F)c(Cl)cc2F)C2COC2)N(C(=O)c2ccnc(C(F)(F)F)c2)C1)c1ccnc(C(F)(F)F)c1 [Example 493, (3R,5R)-5-(((R)-(4-chloro-2,5-difluorophenyl)(3-oxetanyl)methyl)carbamoyl)-1-((2-(trifluoromethyl)-4-pyridinyl)carbonyl)-3-pyrrolidinyl2-(trifluoromethyl)-4-pyridinecarboxylate] | 2.271 |  |  |
| Cc1noc(C2CN(S(=O)(=O)N3CCC[C@H](C(=O)N4CCC[C@@H]4C(=O)NCc4ccc(C(F)(F)F)cc4)C3)C2)n1 [Example 688, 1-(((3S)-1-((3-(3-methyl-1,2,4-oxadiazol-5-yl)-1-azetidinyl)sulfonyl)-3-piperidinyl)carbonyl)-N-(4-(trifluoromethyl)benzyl)-D-prolinamide] | 5.317 |  |  |
| N#CC1CN(S(=O)(=O)N2CCC[C@H](C(=O)N3CCC[C@@H]3C(=O)N[C@H](c3cc(F)c(Cl)cc3F)C3CNC3)C2)C1 [Example 47, N-((S)-3-azetidinyl(4-chloro-2,5-difluorophenyl)methyl)-1-(((3S)-1-((3-cyano-1-azetidinyl)sulfonyl)-3-piperidinyl)carbonyl)-D-prolinamide] | 0.0527 |  |  |
| CS(=O)(=O)c1cccc(C(=O)N2CCC[C@@H]2C(=O)N[C@@H](c2cc(F)c(C(F)(F)F)cc2F)[C@H]2C[C@H](O)C2)c1 [Example 828, (R)-N-((R)-(2,5-difluoro-4-(trifluoromethyl)phenyl)((lr,3R)-3-hydroxycyclobutyl)methyl)-1-(3-(methylsulfonyl)benzoyl)pyrrolidine-2-carboxamide] | 0.1639 |  |  |
